Ki data for one compound are collected here from PMC6868039, “Maltose Processing and Not β-Amylase Activity Curtails Hydrolytic Starch Degradation in the CAM Orchid Phalaenopsis” (Frontiers in Plant Science, 2019).

The target of this test is T1, PEPC (phosphoenolpyruvate carboxylase).
T1 construct: native enzyme in desalted (Sephadex G-25) crude leaf extract, not purified; phosphorylation state varies over the day
The experiment in a line: NADH oxidation at […] nm, coupled to endogenous MDH in desalted leaf extract. It counts as biochemical, Phalaenopsis hybrid cultivar. Particulars: daytime leaves (mean of fluctuating values); 2.5 mM PEP, 10 mM NaHCO3, 5 mM MgCl2, pH 7.5, 25 °C; crude desalted extract.

As to `O=C(O)C[C@H](O)C(=O)O` [malic acid], the Ki worked out at 6 ± 3 mM.

The Ki is a dissociation constant, usually derived from enzyme kinetics or from competition with a known ligand.
